From paper PMC12799362, “The effect of dimeric bisbenzimidazoles on the activity of DNA repair enzymes TDP1, TDP2, PARP1 and PARP2” (Vavilov Journal of Genetics and Breeding, 2025) come the findings set out here.

Assay [1] concerns the target T1, tyrosyl-DNA phosphodiesterase 1 (TDP1) (Homo sapiens, UniProt Q9NUW8).
T1 construct: made in house; host or cells: E. coli
Put plainly: Real-time fluorescent detection of TDP1 activity (BHQ1 cleavage from 3′-end of single-stranded FAM oligonucleotide). Type of assay: biochemical. Particulars: recombinant TDP1 1.5 nM, 50 nM single-stranded oligonucleotide, 26 °C; mean ± SD, at least three replicates. The protocol:
(§1) Recombinant human proteins tyrosyl-DNA phosphodiesterase 1 (TDP1) and tyrosyl-DNA phosphodiesterase 2 (TDP2) were expressed in the E. coli system, poly(ADP-ribose) polymerase 1 (PARP1) and poly(ADP-ribose) polymerase 2 (PARP2) were expressed in insect cells using a baculovirus expression system and purified as described in (Sukhanova et al., 2004; Sherstyuk et al., 2019; Dyrkheeva et al., 2020, 2021).
Determination of TDP1 activity. The reaction mixture (200 μl) for real-time fluorescent detection of TDP1 enzyme activity (Zakharenko et al., 2015) contained TDP1 reaction buffer (50 mM Tris-HCl, pH 8.0, 50 mM NaCl, and 7 mM β-mercaptoethanol), 50 nM oligonucleotide 5′-FAM-AAC GTC AGG GTC TTC C-BHQ1-3′, the test compound at various concentrations, and TDP1 at a final concentration of 1.5 nM. The reaction mixtures were incubated at a constant temperature of 26 °C in a POLARstar OPTIMA microplate fluorometer (BMG LABTECH, GmbH, Ortenberg, Germany). Fluorescence intensity (Ex485/Em520 nm) was measured every minute for 10 min. Mean values of half-maximal inhibitory concentration (IC50 – the concentration of the compound that inhibited 50 % of enzyme activity compared to the untreated control well containing only enzyme and substrate) were determined using a dose-response curve of the fluorescence signal level versus inhibitor concentration and calculated using MARS Data Analysis 2.0 (BMG LABTECH). Kinetic curves were obtained in at least three independent experiments and statistically processed in OriginPro 8.6.0 (OriginLab, Northampton, Massachusetts, USA).
The third group of compounds includes derivatives of the monomeric compound MB2Py(Ac), which is an isosteric analog of MB3, due to the fact that the pyrrolecarboxamide fragment contained in its structure can act as a hydrogen atom donor at the carboxamide nitrogen for hydrogen bond formation, in a position analogous to benzimidazole. Dimeric derivatives are represented by the DB2Py(n) series containing n-alkyldicarboxylic acids as a linker. This series is represented by a set of compounds containing 1, 3, 4, 5, 7, 9, and 11 methylene units, which allowed for a more accurate assessment of the dependence of the inhibitory activity of compounds on spacer length. The DB2Py(n) series differs from the DB3(n) series by the presence, in addition to the bisbenzimidazole structure, of a pyrrolecarboxamide structure, which is a fragment of the AT-specific antibiotic netropsin.Using the real-time fluorescence analysis method, halfmaximal inhibitory concentration (IC50) values of the studied compounds (see the Table) were obtained in the reaction of BHQ1 cleavage from the 3′-end of the oligonucleotide by TDP1, which led to an increase in FAM fluorescence at the 5′-end of the chain (Zakharenko et al., 2015). It should also be noted that a single-stranded oligonucleotide was used as substrate to exclude the binding of dimeric bisbenzimidazoles as minor-groove ligands to the DNA substrate and direct their action toward the enzymatic target.

Assay [2] has as its target T2, tyrosyl-DNA phosphodiesterase 2 (TDP2) (Homo sapiens, UniProt O95551).
T2 construct: made in house; host or cells: E. coli
T2 sequence (O95551 1-362): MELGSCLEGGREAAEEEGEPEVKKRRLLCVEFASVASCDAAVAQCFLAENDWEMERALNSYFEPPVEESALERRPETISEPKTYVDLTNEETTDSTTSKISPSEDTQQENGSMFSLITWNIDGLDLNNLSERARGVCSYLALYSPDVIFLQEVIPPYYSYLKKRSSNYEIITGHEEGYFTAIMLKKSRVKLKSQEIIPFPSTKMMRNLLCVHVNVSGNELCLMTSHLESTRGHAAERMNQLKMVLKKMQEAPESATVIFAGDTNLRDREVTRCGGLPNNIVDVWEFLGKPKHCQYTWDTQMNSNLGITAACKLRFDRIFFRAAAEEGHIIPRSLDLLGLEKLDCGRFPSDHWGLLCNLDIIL
Put plainly: TDP2 activity, removal of 5′-tyrosine from oligonucleotide substrate, denaturing PAGE. Particulars: inhibitor 500 μM, TDP2 200 nM, substrate 100 nM, 10 min, 37 °C; mean ± SD; read-out: TDP2 % of residual activity (500 μM). The format is biochemical.
Excerpt: as §1
Determination of TDP2 activity. For determination of TDP2 enzyme activity, an oligonucleotide 5′-tyrosine-AAC GTC AGG GTC TTC C-FAM-3′ containing a 6-FAM label at the 3′-end and an L-tyrosine residue attached via the phenolic OH group to the 5′-terminal phosphate was used as substrate, synthesized at the Russian-French-Japanese Laboratory of Bionanotechnology of Novosibirsk State University as described in (Dyrkheeva et al., 2021). The substrate at a concentration of 100 nM was incubated with TDP2 at a concentration of 200 nM in the absence or presence of inhibitor (500 μM) for 10 min at 37 °C in buffer containing 50 mM Tris-HCl, pH 8.0, 50 mM NaCl, 7 mM β-mercaptoethanol (Dyrkheeva et al., 2021). The reaction was stopped by addition of PAGE loading buffer (TBE, 10 % formamide, 7 M urea, 20 mM EDTA, 0.1 % xylene cyanol, and 0.1 % bromophenol blue). The samples were then heated at 90 °C for 5 min. The enzymatic reaction products were separated by electrophoresis in 20 % denaturing PAGE with 7 M urea at an acrylamide to bisacrylamide ratio of 19:1. A high-resolution Typhoon FLA 9500 laser scanner (GE Healthcare, Chicago, Illinois, USA) was used for gel scanning and visualization, and the data were analyzed using QuantityOne 4.6.7 software (Bio- Rad Laboratories, Inc., Hercules, California, USA). At least three independent experiments were performed, and statistical processing was carried out using OriginPro 8.6.0 (OriginLab, Northampton, Massachusetts, USA).
To study the effect of the studied compounds on TDP2 activity, we tested the ability of this enzyme to remove the tyrosine residue from the 5′-end of the oligonucleotide substrate in the absence and presence of inhibitors, as described in (Dyrkheeva et al., 2021).

Assay [3] deals with T3, poly(ADP-ribose) polymerase 1 (PARP1) (Homo sapiens, UniProt P09874).
T3 construct: made in house; host or cells: insect cells (baculovirus expression system)
In words: PARP1 auto-poly(ADP-ribosyl)ation with [32P]-NAD+. The format is biochemical. Particulars: compound 500 μM, PARP1 200 nM, 0.3 mM [32P]-NAD+, 2 min, 37 °C; mean ± SD; read-out: PARP1 % of residual activity (500 μM).
Excerpt: as §1
(§2) Determination of PARP1 and PARP2 activity. For determination of PARP1 and PARP2 enzyme activity in the presence and absence of test compounds, radiolabeled [32P]-NAD⁺ was synthesized from α-[32P]-ATP according to the protocol (Sherstyuk et al., 2019). The auto-poly(ADPribosyl) ation reaction was performed in buffer for PARP1: 50 mM Tris-HCl, pH 8.0, 10 mM MgCl2, 150 mM NaCl, and 7 mM β-mercaptoethanol, as well as 2 A260 units/ml activated DNA, 0.3 mM [32P]-NAD⁺ at 37 °C. The reaction was initiated by addition of PARP1 to 200 nM and carried out for 2 min
(§3) The buffer for PARP2 contained: 50 mM Tris-HCl, pH 8.0, 3 mM spermine, 150 mM NaCl, and 7 mM β-mercaptoethanol, 2 A260 units/ml activated DNA, 0.6 mM [32P]-NAD⁺ at 37 °C. The reaction was initiated by addition of PARP2 to 600 nM, and the reaction mixtures were incubated for 5 min. The reaction was stopped by placing 5 μl aliquots on Whatman 1 paper filters impregnated with 5 % trichloroacetic acid (TCA). The filters were washed with 5 % TCA four times and air-dried after removal of TCA with 90 % ethanol. The incorporation of the radioactive label into the reaction product was calculated using a Typhoon FLA 9500 scanner (GE Healthcare, Chicago, Illinois, USA). At least three independent experiments were performed.

Assay [4] has as its system poly(ADP-ribose) polymerase 2 (PARP2). Put plainly: PARP2 auto-poly(ADP-ribosyl)ation with [32P]-NAD+. Type of assay: biochemical, human. Particulars: compound 500 μM, PARP2 600 nM, 0.6 mM [32P]-NAD+, 5 min, 37 °C; mean ± SD.
Excerpt: as §1, §2, §3

T1 sequence (Q9NUW8 whole entry): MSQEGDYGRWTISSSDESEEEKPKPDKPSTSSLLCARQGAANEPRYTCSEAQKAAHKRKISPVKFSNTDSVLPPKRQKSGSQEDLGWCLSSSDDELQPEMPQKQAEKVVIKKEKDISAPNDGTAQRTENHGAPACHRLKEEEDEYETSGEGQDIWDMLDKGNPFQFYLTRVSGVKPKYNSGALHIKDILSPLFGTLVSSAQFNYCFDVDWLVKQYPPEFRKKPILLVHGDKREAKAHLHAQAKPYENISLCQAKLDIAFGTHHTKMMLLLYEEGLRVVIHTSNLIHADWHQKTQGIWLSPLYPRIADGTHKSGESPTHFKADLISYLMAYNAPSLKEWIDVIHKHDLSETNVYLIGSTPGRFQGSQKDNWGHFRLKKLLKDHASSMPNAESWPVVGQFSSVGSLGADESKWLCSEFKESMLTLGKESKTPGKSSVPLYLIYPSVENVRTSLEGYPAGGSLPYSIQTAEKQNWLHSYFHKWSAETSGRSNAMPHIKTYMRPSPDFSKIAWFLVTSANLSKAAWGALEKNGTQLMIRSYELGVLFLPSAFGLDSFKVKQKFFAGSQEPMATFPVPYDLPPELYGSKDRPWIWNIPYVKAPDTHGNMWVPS
T3 sequence (P09874 whole entry): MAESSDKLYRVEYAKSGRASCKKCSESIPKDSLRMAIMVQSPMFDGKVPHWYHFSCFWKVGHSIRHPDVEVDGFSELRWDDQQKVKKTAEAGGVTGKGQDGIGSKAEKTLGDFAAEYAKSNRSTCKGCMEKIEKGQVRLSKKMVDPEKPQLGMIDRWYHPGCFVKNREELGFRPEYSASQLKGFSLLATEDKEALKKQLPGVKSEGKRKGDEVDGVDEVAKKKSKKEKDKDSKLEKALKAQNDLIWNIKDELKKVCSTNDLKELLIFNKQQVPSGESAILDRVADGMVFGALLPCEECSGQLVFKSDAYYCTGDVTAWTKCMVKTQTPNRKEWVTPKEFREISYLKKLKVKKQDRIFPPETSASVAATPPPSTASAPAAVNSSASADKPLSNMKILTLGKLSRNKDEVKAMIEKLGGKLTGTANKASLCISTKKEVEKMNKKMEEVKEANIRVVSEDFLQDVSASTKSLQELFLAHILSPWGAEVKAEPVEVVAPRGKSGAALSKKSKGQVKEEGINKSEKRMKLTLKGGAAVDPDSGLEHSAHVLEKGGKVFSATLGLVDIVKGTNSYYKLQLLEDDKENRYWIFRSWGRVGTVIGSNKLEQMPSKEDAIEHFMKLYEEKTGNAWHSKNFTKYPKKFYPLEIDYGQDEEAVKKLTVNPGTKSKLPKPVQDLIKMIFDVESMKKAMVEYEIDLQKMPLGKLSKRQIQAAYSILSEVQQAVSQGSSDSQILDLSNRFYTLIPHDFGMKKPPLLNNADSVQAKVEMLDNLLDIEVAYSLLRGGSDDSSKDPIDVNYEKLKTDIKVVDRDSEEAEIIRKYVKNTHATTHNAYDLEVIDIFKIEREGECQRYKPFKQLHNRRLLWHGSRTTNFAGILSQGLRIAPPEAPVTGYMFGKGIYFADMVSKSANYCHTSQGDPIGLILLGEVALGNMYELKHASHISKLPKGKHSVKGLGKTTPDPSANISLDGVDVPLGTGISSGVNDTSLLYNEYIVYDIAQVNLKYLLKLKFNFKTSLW

A word on the IC50: it is the concentration that inhibits the measured activity by half. With `CN1CCN(c2ccc3nc(-c4ccc5nc(CNC(=O)CN6CCN(CC(=O)NCc7nc8ccc(-c9nc%10ccc(N%11CCN(C)CC%11)cc%10[nH]9)cc8[nH]7)CC6)[nH]c5c4)[nH]c3c2)CC1` [DB2P(1)], the IC50 in assay [1] was found to be 6000 ± 4000 nM. The remaining activity at 500 µM is 66 ± 7% in assay [2] and 57 ± 16% in assay [3]. Also, the “PARP2 % of residual activity (500 μM)” value in assay [4] is ~ 100%.
In the case of `CN1CCN(c2ccc3nc(-c4ccc5nc(CNC(=O)CCN6CCN(CCC(=O)NCc7nc8ccc(-c9nc%10ccc(N%11CCN(C)CC%11)cc%10[nH]9)cc8[nH]7)CC6)[nH]c5c4)[nH]c3c2)CC1` [DB2P(2)], the IC50 in assay [1] was 9000 ± 3000 nM. Further, the remaining activity at 500 µM in assay [2] is 44 ± 11%; in assay [3] it was 51 ± 15%. The “PARP2 % of residual activity (500 μM)” value in assay [4] was determined as 80 ± 20%.
With `CN1CCN(c2ccc3nc(-c4ccc5nc(CNC(=O)CCCN6CCN(CCCC(=O)NCc7nc8ccc(-c9nc%10ccc(N%11CCN(C)CC%11)cc%10[nH]9)cc8[nH]7)CC6)[nH]c5c4)[nH]c3c2)CC1` [DB2P(3)], the IC50 in assay [1] was determined as 4100 ± 600 nM. For the same compound, the results for the remaining activity at 500 µM in assay [2] and in assay [3] were 36 ± 7% and 37 ± 10%, respectively. For the same compound, the “PARP2 % of residual activity (500 μM)” value in assay [4] is 64 ± 16%.
On to `CN1CCN(c2ccc3nc(-c4ccc5nc(CNC(=O)CCCCN6CCN(CCCCC(=O)NCc7nc8ccc(-c9nc%10ccc(N%11CCN(C)CC%11)cc%10[nH]9)cc8[nH]7)CC6)[nH]c5c4)[nH]c3c2)CC1` [DB2P(4)], for which the IC50 in assay [1] worked out at 2300 ± 300 nM. Moreover, the remaining activity at 500 µM in assay [2] came out at 44 ± 11%; in assay [3], 33 ± 13%. The “PARP2 % of residual activity (500 μM)” value in assay [4] is 85 ± 13%.
Taken in the same sequence, the figures for `CCCn1cc(NC(=O)CC(=O)Nc2cc(-c3nc4ccc(-c5nc6ccc(N7CCN(C)CC7)cc6[nH]5)cc4[nH]3)n(CCC)c2)cc1-c1nc2ccc(-c3nc4ccc(N5CCN(C)CC5)cc4[nH]3)cc2[nH]1` [DB2Py(1)] were 250 ± 50 nM, 55 ± 3%, around 100% and ~ 100%.
As to `CCCn1cc(NC(=O)CCCC(=O)Nc2cc(-c3nc4ccc(-c5nc6ccc(N7CCN(C)CC7)cc6[nH]5)cc4[nH]3)n(CCC)c2)cc1-c1nc2ccc(-c3nc4ccc(N5CCN(C)CC5)cc4[nH]3)cc2[nH]1` [DB2Py(3)], the IC50 in assay [1] was determined as 410 ± 90 nM. Also, the remaining activity at 500 µM in assay [2] is 70 ± 11%; in assay [3], around 100%. Moreover, in assay [4], the “PARP2 % of residual activity (500 μM)” value is given as ~ 100%.
The matching figures for `CCCn1cc(NC(=O)CCCCC(=O)Nc2cc(-c3nc4ccc(-c5nc6ccc(N7CCN(C)CC7)cc6[nH]5)cc4[nH]3)n(CCC)c2)cc1-c1nc2ccc(-c3nc4ccc(N5CCN(C)CC5)cc4[nH]3)cc2[nH]1` [DB2Py(4)]: 400 ± 150 nM, around 100%, around 100% and ~ 100%.
For `CCCn1cc(NC(=O)CCCCCC(=O)Nc2cc(-c3nc4ccc(-c5nc6ccc(N7CCN(C)CC7)cc6[nH]5)cc4[nH]3)n(CCC)c2)cc1-c1nc2ccc(-c3nc4ccc(N5CCN(C)CC5)cc4[nH]3)cc2[nH]1` [DB2Py(5)], the half-inhibitory concentration (IC50) in assay [1] stood at 350 ± 130 nM. For the same compound, the remaining activity at 500 µM in assay [2] and in assay [3] was around 100% in each case. In addition, the “PARP2 % of residual activity (500 μM)” value in assay [4] is on record as ~ 100%.
Consider `CCCn1cc(NC(=O)CCCCCCCC(=O)Nc2cc(-c3nc4ccc(-c5nc6ccc(N7CCN(C)CC7)cc6[nH]5)cc4[nH]3)n(CCC)c2)cc1-c1nc2ccc(-c3nc4ccc(N5CCN(C)CC5)cc4[nH]3)cc2[nH]1` [DB2Py(7)], for which, in assay [1], the IC50 turned out to be 280 ± 10 nM. Besides, the remaining activity at 500 µM in assay [2] and in assay [3] was around 100% each time. In addition, the “PARP2 % of residual activity (500 μM)” value in assay [4] is ~ 100%.
